Usually IC50 stands for the midpoint of a concentration-inhibition curve.

Where two headings read alike, the source gives them in different places.

Experimental findings from patent publication US7531555B2, “Compositions and methods for selective inhibition of nicotine acetylcholine receptors” (University of Florida Research Foundation, Inc., priority 2003, dated 2009) are described below.

For assay [1], the target named is T1, mouse muscle-type (α1β1εδ) nAChR (Mus musculus, UniProt P02716+P04756+P09690+P20782).
T1 construct: expressed in transfected cells; host or cells: Xenopus laevis oocytes injected with subunit cRNAs; clones from Dr. Jim Boulter (UCLA)
T1 sequence (P04756 21-457): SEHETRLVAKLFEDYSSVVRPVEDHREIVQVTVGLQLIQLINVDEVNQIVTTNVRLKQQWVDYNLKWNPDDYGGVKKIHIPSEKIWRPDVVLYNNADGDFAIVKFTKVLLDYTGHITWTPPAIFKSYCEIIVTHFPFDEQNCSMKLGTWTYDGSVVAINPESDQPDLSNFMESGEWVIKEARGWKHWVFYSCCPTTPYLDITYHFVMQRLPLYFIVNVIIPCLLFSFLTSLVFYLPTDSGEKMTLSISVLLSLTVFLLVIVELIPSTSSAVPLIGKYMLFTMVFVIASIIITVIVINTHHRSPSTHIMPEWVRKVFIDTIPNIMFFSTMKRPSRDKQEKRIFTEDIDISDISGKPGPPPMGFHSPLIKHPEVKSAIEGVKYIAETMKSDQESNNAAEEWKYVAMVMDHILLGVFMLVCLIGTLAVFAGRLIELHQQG
T1 sequence (P09690 24-501): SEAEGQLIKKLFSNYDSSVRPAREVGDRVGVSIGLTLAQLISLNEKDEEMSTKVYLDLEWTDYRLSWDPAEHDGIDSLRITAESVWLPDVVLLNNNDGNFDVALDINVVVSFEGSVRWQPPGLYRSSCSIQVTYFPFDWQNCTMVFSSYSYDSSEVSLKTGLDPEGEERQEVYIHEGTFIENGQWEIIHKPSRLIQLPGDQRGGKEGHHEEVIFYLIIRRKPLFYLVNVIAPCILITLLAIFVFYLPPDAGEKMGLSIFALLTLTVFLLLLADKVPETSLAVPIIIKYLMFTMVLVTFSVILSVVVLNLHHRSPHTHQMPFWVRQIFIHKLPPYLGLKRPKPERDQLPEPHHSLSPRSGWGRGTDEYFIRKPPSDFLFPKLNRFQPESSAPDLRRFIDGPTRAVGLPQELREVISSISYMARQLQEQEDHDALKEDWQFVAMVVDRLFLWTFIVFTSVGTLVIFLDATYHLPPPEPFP
T1 sequence (P20782 21-493): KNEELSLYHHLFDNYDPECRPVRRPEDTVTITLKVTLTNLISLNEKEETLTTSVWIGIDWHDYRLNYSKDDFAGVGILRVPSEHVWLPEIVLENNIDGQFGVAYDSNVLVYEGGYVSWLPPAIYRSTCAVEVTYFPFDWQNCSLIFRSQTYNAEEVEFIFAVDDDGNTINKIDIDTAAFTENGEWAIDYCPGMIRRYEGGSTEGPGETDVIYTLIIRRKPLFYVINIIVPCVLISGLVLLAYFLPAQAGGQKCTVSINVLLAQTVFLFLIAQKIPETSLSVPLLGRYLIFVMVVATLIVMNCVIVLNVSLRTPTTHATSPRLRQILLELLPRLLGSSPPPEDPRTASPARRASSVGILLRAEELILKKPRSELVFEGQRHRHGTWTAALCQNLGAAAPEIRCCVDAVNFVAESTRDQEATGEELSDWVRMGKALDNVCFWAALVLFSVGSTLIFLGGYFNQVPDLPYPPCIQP
T1 sequence (P02716 25-520): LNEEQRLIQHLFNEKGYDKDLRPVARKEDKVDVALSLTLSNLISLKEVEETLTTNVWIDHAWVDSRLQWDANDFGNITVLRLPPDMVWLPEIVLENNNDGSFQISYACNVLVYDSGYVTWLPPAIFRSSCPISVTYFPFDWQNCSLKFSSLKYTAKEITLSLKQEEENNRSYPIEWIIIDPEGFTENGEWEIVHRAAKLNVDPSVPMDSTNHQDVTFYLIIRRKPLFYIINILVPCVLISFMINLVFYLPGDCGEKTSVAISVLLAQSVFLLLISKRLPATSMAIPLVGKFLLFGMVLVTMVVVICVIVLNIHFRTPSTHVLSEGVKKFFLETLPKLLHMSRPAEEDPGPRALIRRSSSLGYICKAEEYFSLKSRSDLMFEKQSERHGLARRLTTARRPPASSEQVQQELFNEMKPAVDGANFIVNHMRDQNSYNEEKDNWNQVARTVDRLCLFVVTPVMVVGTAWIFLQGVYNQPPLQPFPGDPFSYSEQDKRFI
As to the kind of experiment: Voltage clamp of Xenopus oocytes expressing muscle-type nAChR. Format: cell-based.

A further assay relates to mice. As to the kind of experiment: Body temperature, nicotine-induced hypothermia. In kind it is in vivo. The note with it: for Body temperature Δ° C. (Mean ± SEM): s.c. The protocol: Animals. Male ICR mice (20-25 g) obtained from Harlan Laboratories (Indianapolis, Ind.) were used throughout the study. Animals were housed in groups of six and had free access to food and water. Adult, male Long-Evans rats (350-460 g), obtained from Harlan (Dublin, Va.), were individually housed in a temperature-controlled (20-22° C.) environment with a 12-hour light-dark cycle (lights on at 7 a.m.). Rats were maintained within the indicated weight range by restricted post-session feeding and had ad libitum water in their home cages. Rats were drug-naive at the beginning of the study. Animals were housed in an AALAC approved facility and the study was approved by the Institutional Animal Care and Use Committee of Virginia Commonwealth University. Body temperature. Rectal temperature was determined by a thermistor probe (inserted 24 mm) and digital thermometer (Yellow Springs Instrument Co., Yellow Springs, Ohio). […] The difference in rectal temperature before and after treatment was calculated for each mouse. The ambient temperature of the laboratory varied from 21-24° C. from day to day. […] Psychopharmacology (Berl), 1995, 117:67-73). Eight to twelve mice were tested in each treatment group and each animal was tested only once. Statistical analysis. Statistical analysis of all analgesic and in vivo studies was performed using either t-test or analysis of variance (ANOVA) with Tukey's test post hoc test when appropriate.

Another assay deals with T2, Rat α3β2 (Rattus norvegicus, UniProt P04757+P12390).
T2 construct: expressed in transfected cells; host or cells: Xenopus laevis oocytes injected with subunit cRNAs; clones from Dr. Jim Boulter (UCLA)
T2 sequence (P04757 26-499): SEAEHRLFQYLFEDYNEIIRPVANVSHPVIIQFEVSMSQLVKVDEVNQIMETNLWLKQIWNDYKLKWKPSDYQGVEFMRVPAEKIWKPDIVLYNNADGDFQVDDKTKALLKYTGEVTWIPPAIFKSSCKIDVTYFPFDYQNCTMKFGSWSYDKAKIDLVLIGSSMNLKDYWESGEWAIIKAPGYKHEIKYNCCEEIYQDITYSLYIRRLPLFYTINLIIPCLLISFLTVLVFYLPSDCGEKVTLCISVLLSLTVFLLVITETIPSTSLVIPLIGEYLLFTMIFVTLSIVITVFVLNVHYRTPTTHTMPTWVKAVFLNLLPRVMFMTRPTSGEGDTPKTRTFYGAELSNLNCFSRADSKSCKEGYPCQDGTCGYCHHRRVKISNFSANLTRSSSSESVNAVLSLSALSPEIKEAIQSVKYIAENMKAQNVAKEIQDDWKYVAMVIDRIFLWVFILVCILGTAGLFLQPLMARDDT
T2 sequence (P12390 25-500): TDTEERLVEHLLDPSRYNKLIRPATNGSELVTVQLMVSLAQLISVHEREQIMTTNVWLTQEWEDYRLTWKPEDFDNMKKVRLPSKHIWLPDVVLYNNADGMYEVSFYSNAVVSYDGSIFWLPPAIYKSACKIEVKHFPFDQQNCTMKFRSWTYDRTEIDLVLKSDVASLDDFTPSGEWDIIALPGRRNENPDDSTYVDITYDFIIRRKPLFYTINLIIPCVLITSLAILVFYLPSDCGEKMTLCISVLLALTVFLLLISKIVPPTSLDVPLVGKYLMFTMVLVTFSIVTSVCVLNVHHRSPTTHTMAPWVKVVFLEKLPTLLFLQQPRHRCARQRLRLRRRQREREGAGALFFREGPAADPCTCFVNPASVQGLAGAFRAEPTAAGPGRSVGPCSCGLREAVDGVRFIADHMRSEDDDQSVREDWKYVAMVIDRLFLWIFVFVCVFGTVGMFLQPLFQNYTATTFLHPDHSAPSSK
Description: Voltage clamp of Xenopus oocytes expressing rat α3β2 nAChR. Format: cell-based. The protocol:
(§1) Mature (>9 cm) female Xenopus laevis African frogs (NASCO, Ft. Atkinson, Wis.) were used as a source of oocytes. Prior to surgery, frogs were anesthetized by placing the animal in a 1.5 g/l solution of MS222 (3-aminobenzoic acid ethyl ester) for 30 minutes. Oocytes were removed from an incision made in the abdomen.
(§2) In order to remove the follicular cell layer, harvested oocytes were treated with 1.25 mg/ml collagenase from Worthington Biochemical Corporation (Freehold, N.J.) for 2 hours at room temperature in calcium-free Barth's solution (88 mM NaCl, 10 mM HEPES pH 7.6, 0.33 mM MgSO4, 0.1 mg/ml gentamicin sulfate). Subsequently, stage 5 oocytes were isolated and injected with 50 nl (5-20 ng) each of the appropriate subunit cRNAs. Recordings were made 2 to 15 days after injection.
(§3) Rat neuronal nAChR clones and mouse muscle nAChR cDNA clones were used. The wild-type clones were obtained from Dr. Jim Boulter (UCLA). The rat α6/3 (Dowell et al. J Neurosci, 2003, 23:8445-8452) clone was obtained from Michael McIntosh (University of Utah) and expressed in Xenopus oocytes in combinations with rat β2 and β3. […] The TM2 domain is understood to line the pore of the channel, with alpha helix structure. The 7′ position may actually be directed away from the actual pore lining, but this residue is highly conserved in all of the nAChR. It is valine in all of them except α9 (isoleucine) and β1, where it is alanine. The TM2 mutation in the α6/3 chimera was corrected by using QuickChange (Stratagene) according to their protocols. The corrected α6/3 chimera sequence was confirmed by restriction diagnostics and by automated fluorescent sequencing (University of Florida core facility). The corrected clone was expressed as above in Xenopus oocytes with β2 and β3 and compared to the wild-type α3 co-expressed with β2 and β3.
(§4) After linearization and purification of cloned cDNAs, RNA transcripts were prepared in vitro using the appropriate mMessage mMachine kit from Ambion Inc. (Austin, Tex.).
(§5) Electrophysiology. The majority of experiments were conducted using OpusXpress 6000A (Axon Instruments, Union City Calif.). OpusXpress is an integrated system that provides automated impalement and voltage clamp of up to eight oocytes in parallel. Cells were automatically perfused with bath solution, and agonist solutions were delivered from a 96-well plate. Both the voltage and current electrodes were filled with 3 M KCl. The agonist solutions were applied via disposable tips, which eliminated any possibility of cross-contamination. Drug applications alternated between ACh controls and experimental applications. Flow rates were set at 2 ml/min for experiments with α7 receptors and 4 ml/min for other subtypes. Cells were voltage-clamped at a holding potential of −60 mV. Data were collected at 50 Hz and filtered at 20 Hz. Agonist applications were 12 seconds in duration followed by 181-second washout periods for α7 receptors and 8 seconds with 241-second wash periods for other subtypes. For some experiments, particularly under conditions where residual inhibition precluded making repeated measurements from single cells (see below), manual oocyte recordings were made as previously described (Papke and Papke Br J of Pharmacol, 2002, 137:49-61). In brief, Warner Instruments (Hamden, Conn.) OC-725C oocyte amplifiers were used, and data were acquired with a minidigi or digidata 1200A with pClamp9 software (Axon Instruments). Sampling rates were between 10 and 20 Hz and the data were filtered at 6 Hz. Cells were voltage clamped at a holding potential of −50 mV.
Experimental protocols and data analysis. Each oocyte received two initial control applications of ACh, an experimental drug application (or co-application of ACh and TMPH), and then follow-up control application(s) of ACh. The control ACh concentrations for α1β1γδ, α3β4, α4β2, α3β2, α3β2α5, α3β2β3, α6/3β2β3 α6β4β3 and α7, receptors were 30 μM, 100 μM, 10 μM, 30 μM, 1 μM 100 μM 100 μM 100 μM and 300 μM, respectively. […]

The next assay addresses T3, Rat α3β2β3 (Rattus norvegicus, UniProt P04757+P12390+P12391).
T3 construct: expressed in transfected cells; host or cells: Xenopus laevis oocytes injected with subunit cRNAs; clones from Dr. Jim Boulter (UCLA)
As to the kind of experiment: Voltage clamp of Xenopus oocytes expressing α3β2β3 nAChR. In kind it is cell-based. The protocol:
as §1, §2, §3, §4
as §5, with “Cells were voltage clamped at a holding potential of −50 mV.” left out

Setting [2] is: inhibition still present after 5-minute wash, read-out: IC50 (recovery).

T3 sequence (P04757 26-499): as the sequence (P04757 26-499) above
T3 sequence (P12390 25-500): as the sequence (P12390 25-500) above
T3 sequence (P12391 31-464): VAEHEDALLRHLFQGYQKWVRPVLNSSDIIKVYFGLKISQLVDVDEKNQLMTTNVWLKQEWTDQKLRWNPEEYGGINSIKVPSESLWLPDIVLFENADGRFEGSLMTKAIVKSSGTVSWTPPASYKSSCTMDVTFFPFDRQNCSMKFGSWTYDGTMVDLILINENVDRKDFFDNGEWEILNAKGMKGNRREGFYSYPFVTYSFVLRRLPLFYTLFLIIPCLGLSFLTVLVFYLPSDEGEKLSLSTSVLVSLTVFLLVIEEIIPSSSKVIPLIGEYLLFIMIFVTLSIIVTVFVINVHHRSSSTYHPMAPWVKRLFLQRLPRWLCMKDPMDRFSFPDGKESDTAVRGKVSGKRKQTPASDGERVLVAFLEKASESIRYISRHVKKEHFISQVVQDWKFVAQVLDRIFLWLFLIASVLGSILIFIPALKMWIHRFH

With `CCCCCCC(=O)OC1CC(C)(C)NC(C)(C)C1` [TMPH, 2,2,6,6-tetramethylpiperidin-4-yl heptanoate], the reversibility of inhibition result in assay [1] (after a 5-minute wash) is “readily reversible”; at Rat α3β2 (following a 5-minute wash) it was “virtually no recovery”. The IC50 in assay [1] (decrease in net charge, ACh co-applied with TMPH, read-out: IC50 (area)) was 0.39 ± 0.05 µM; in assay [1] (decrease in peak current amplitude, ACh co-applied with TMPH, read-out: IC50 (peak)), 0.276 ± 0.02 µM; in assay [1] (setting [2]), 27 ± 5.5 µM; on Rat α3β2 (decrease in net charge, 30 μM ACh co-applied with TMPH, read-out: IC50 (area)), 0.44 ± 0.09 µM; at Rat α3β2 (decrease in peak current amplitude, 30 μM ACh co-applied with TMPH, read-out: IC50 (peak)) it was 3.7 ± 1.2 µM; on Rat α3β2 (setting [2]), 0.23 ± 0.03 µM. Besides, the IC50 worked out at 2.7 ± 0.6 µM at Rat α3β2β3 (decrease in net charge, 100 μM ACh co-applied with TMPH, read-out: IC50 (area)); 120 ± 80 µM on Rat α3β2β3 (decrease in peak current amplitude, 100 μM ACh co-applied with TMPH, read-out: IC50 (peak)); 4.3 ± 1.5 µM at Rat α3β2β3 (setting [2]). For the same molecule, the entries for the “IC50 net charge/IC50 peak” value (in assay [1] (ratio); on Rat α3β2 (ratio); on Rat α3β2β3 (ratio)) were 1.4, 0.12 and 0.025, respectively. In addition, the “IC50 recovery/IC50 net charge” value in assay [1] (ratio) came out at 69; at Rat α3β2 (ratio) it was 0.52; on Rat α3β2β3 (ratio), 1.6. In the assay with mice (TMPH 20 mg/kg, nicotine 2.5 mg/kg), the “effect on nicotine-induced hypothermia” value is listed as “not blocked”. Also, the “Body temperature Δ° C. (Mean ± SEM)” value in the assay with mice (TMPH (20 mg/kg)/Nicotine (1.5 mg/kg)) is −5.2 ± 0.4 °C; in the assay on mice (TMPH (20 mg/kg)/Saline), −1.0 ± 0.2 °C. In addition, in the assay with mice (TMPH @ 20 mg/kg), the “blockade of nicotine-induced hypothermia” value was 0% blockade @ 20. Further, in the assay with mice (s.c. injection, at the indicated doses and times), the “effect of TMPH by itself on body temperature” value was “did not have a significant effect”. On Rat α3β2 (1 μM TMPH alone, after the washout period), the “use-independent inhibition, TMPH applied alone” value is “no detectable effect”.
